From PMC7413254 (Nature Communications, 2020)
Several values for one entry are separate records, joined by “and”; a condition that tells them apart may be missing. Equal entries are not always repeated.

Experiments:
[1] = tested on: non-expressing oocytes; experiment: cells; assay type: cell-based, Xenopus laevis
Excerpt: The orientation of PfCRT in the parasite’s DV membrane, and also in the oocyte plasma membrane, is such that its N- and C-termini extend into the cytosol. The oocytes were suspended in a reaction buffer adjusted to pH 5.5 to mimic the pH of the DV lumen[1],[2]. In this scenario, the transport of a substrate via PfCRT from the acidic extracellular solution into the oocyte cytosol[15] is analogous to the parasite’s PfCRT-mediated efflux of a substrate from the acidic DV and into the cytosol. Unless specified otherwise, this is the direction in which substrate transport was measured in the oocyte assays.
(§1) Unless specified otherwise, the transport assays were conducted over 1.5 h at 27.5 °C and the reaction buffer was ND96 (96 mM NaCl, 2 mM KCl, 1 mM MgCl2, 1.8 mM CaCl2, 10 mM MES and 10 mM Tris-base) at pH 5.5.
Ten oocytes were washed twice with the relevant ND96 buffer. […] The assay was terminated by removing the reaction buffer and washing the oocytes with ice-cold ND96 buffer. The oocytes were lysed in 10% (w/v) sodium dodecyl sulfate (SDS) and the radioactivity accumulated within each oocyte was measured with a MicroBeta^2 microplate liquid scintillation analyser (PerkinElmer).
(§2) At least four independent experiments were performed (on different days and using oocytes from different frogs), and within each experiment measurements were made from ten oocytes per treatment.

[2] = tested on: non-expressing oocytes; assay type: cell-based, Xenopus laevis
Method: as §1
The intracellular concentrations were calculated using previous estimates of the volume of stage V–VI oocytes (~400 nL[60]). […] The oocytes were injected with VF-6 suspended in 25 nL ND96 buffer adjusted to pH 5.0, 5.5, 6.0 or 7.0, which corresponded to the injection of 2.5–250 fmol of H^+. The Na^+-dependence of the trans-stimulatory effect of VF-6 was assessed by injecting the oocytes with VF-6 suspended in ND96 buffer (pH 5.5) or a Na^+-free version of this buffer (the Na^+ was replaced with choline).
as §2

SMILES	Cis-inhibition data: total [3H]CQ transport, normalised to the oocyte type control [1]	Trans-stimulation data: total [3H]CQ transport, normalised to the oocyte type control [2]
C[N+](C)(C)CCO [Choline]	100 ± 5.4 and 99 ± 4.3 and 98 ± 3.6	99 ± 2.8 and 100 ± 2.6
NCCCNCCCCNCCCN [Spermine]	99 ± 3.7 and 99 ± 4.1 and 100 ± 4.8	99 ± 3.8 and 98 ± 2.9
